Laboratory results published in patent US10478437B2, “Combination therapy to enhance the anticancer efficacy of platinum drugs” (University of Pittsburgh-of the Commonwealth System of …, priority 2014, dated 2019).

System: cisplatin-resistant ovarian cancer cell line A2780cis
Test: Caspase-3/7 activity assay (apoptotic cell death), compound alone or with cisplatin
Type: cell-based, human
Conditions: for caspase-3/7 activity (Lum), compound with cisplatin / caspase-3/7 activity (Lum), compound alone: 20 h; for caspase-3/7 activity (Lum), compound alone: compound 20 μM; for activity in the screen (Caspase-3/7 activity and microscopic examination), active / inactive: alone or in the presence of cisplatin, in words
Method: Cell proliferation was determined using a CyQUANT Direct Cell Proliferation Assay kit (Invitrogen), the activity of caspase-3/7 was measured using a Caspase-Glo 3/7 Assay Systems (Promega, Madison, Wis.), and the MTS calorimetric survival assay was performed using the CellTiter 96 AQueous One Solution Cell Proliferation Assay kit (Promega, Madison, Wis.), according to the manufacturer's instructions. The survival fractions were calculated after setting untreated control cells at 100%. The data were plotted and curve fitted using GraphPad Prism software. To quantify the number of cells with active caspase-3, cells were fixed with 4% paraformaldehyde (Electron microscopy sciences, Hatfield, Pa.), stained with Alexa Fluor-488 conjugated antibody against cleaved caspase-3 (Asp175) (Cell Signaling Technology, Danvers, Mass.) followed by flow cytometry. An FITC Annexin V Apoptosis Detection Kit (BD PharMingen, San Diego, Calif.) was used to quantify apoptotic cells, according to the manufacturer's instructions.
A Caspase-3/7 assay was performed to evaluate the activity of the 36 compounds of FIG. 1 in vitro in the cisplatin-resistant ovarian cancer cell line, A2780cis, alone or in the presence of cisplatin. A microscopic examination of apoptotic morphologic changes was also carried out right before the measurement of Caspase-3/7 activity, in order to confirm that the data on the activation of the Caspase-3/7 following treatment is consistent with morphological change and reflects cell death.

[1] = Table 3, compound 20 μM with 20 μM of cisplatin
[2] = Table 1, compound 20 μM with 20 μM cisplatin
[3] = Table 1, mean ± S.D. of triplicates

| Structure (SMILES) | caspase-3/7 activity (Lum), compound with cisplatin [1] [Lum] | caspase-3/7 activity (Lum), compound alone (Table 3) [Lum] | caspase-3/7 activity (Lum), compound with cisplatin [2] [Lum] | caspase-3/7 activity (Lum), compound alone [3] [Lum] | activity in the screen (Caspase-3/7 activity and microscopic examination), active / inactive |
| --- | --- | --- | --- | --- | --- |
| Cc1cccnc1NC(=S)NC(=O)c1cccs1 [Compound 2-2] | 25 ± 1 | 9 ± 1 | – | – | – |
| O=C(CNC(=S)NC(=O)c1ccco1)c1ccccc1 [Compound 2-12] | 18 ± 1 | 7 ± 1 | – | – | – |
| O=C(CCn1c(=S)[nH]c2ccccc2c1=O)N1CCOCC1 [Compound 1-9] | – | – | 23 ± 1 | 13 ± 1 | – |
| CC1CCc2c(sc3[nH]c(=S)n(Cc4ccccc4)c(=O)c23)C1 (stereo not drawn) [Compound 1-2] | – | – | 25 ± 3 | 12 ± 1 | inactive |
| O=C(NC(=S)NCCN1CCOCC1)c1ccc(Cl)cc1 [Compound 2-18] | 17 ± 1 | 9 ± 1 | – | – | – |
| CC(C)CC(NC(=O)Cn1c(=O)[nH]c(=O)c2ccccc21)c1ccccc1 (stereo not drawn) [Compound 1-25] | – | – | 33 ± 2 | 15 ± 1 | – |
| COc1ccccc1Cn1c(=S)[nH]c2ccccc2c1=O [Compound 1-20] | – | – | 39 ± 3 | 13 ± 1 | – |
| CC(=O)Nn1c(=S)[nH]c2ccccc2c1=O [Compound 1-29] | – | – | 23 ± 1 | 15 ± 2 | – |
| Nn1c(=S)[nH]c2ccccc2c1=O [Compound 1-28] | – | – | 22 ± 2 | 15 ± 1 | – |
| O=C(NC(=S)NCCN1CCOCC1)c1ccc(F)cc1 [Compound 2-17] | 18 ± 1 | 7 ± 2 | – | – | – |
| CN(C)CCn1c(=S)[nH]c2ccc(Cl)cc2c1=O [Compound 1-5] | – | – | 32 ± 1 | 13 ± 1 | – |
| O=C(NC(=S)Nc1ccccc1)c1ccc(Br)o1 [Compound 2-8] | 20 ± 2 | 7 ± 2 | – | – | – |
| O=C(CCn1c(=O)[nH]c2ccccc2c1=O)NCCCOc1ccc(F)cc1 [Compound 1-18] | – | – | 19 ± 3 | 12 ± 1 | – |
| Cc1ccc(-c2csc3[nH]c(=S)n(-c4ccccc4)c(=O)c23)o1 [Compound 1-1] | – | – | 28 ± 1 | 12 ± 1 | inactive |
| C=CCn1c(=S)[nH]c2scc(-c3ccc(C)c(C)c3)c2c1=O [Compound 1-3] | – | – | 28 ± 2 | 12 ± 1 | inactive |
| O=C(NC(=S)NCc1ccccc1)C1CCCCC1 [Compound 2-30] | 20 ± 5 | 6 ± 0 | – | – | – |
| Cc1ccc(C(=O)NC(=S)Nc2ccc(C)cn2)cc1 [Compound 2-24] | 19 ± 5 | 7 ± 1 | – | – | inactive |
| N#Cc1c(-c2ccc(Br)cc2)[nH]c(=S)[nH]c1=O [Compound 1-26] | – | – | 26 ± 1 | 14 ± 3 | – |
| O=C(NC(=S)Nc1ccc(F)c(Cl)c1)C1CCCCC1 [Compound 2-16] | 17 ± 1 | 8 ± 1 | – | – | – |
| O=c1[nH]c2ccccc2c(=O)n1CCc1ccccc1 [Compound 1-33] | – | – | 16 ± 1 | 10 ± 1 | – |
| CCCCn1c(=S)[nH]c2cc(C(=O)OC)ccc2c1=O [Compound 1-36] | – | – | 47 ± 3 | 16 ± 2 | – |
| O=C(CCCCCn1c(=S)[nH]c2ccccc2c1=O)NCc1ccc2c(c1)OCO2 [Compound 1-14] | – | – | 22 ± 2 | 11 ± 1 | – |
| O=C(NC(=S)NC1CCS(=O)(=O)C1)c1ccccc1 (stereo not drawn) [Compound 2-14] | 21 ± 2 | 8 ± 1 | – | – | – |
| O=C(CCn1c(=S)[nH]c2ccccc2c1=O)NCC1(c2ccccc2)CCCC1 [Compound 1-13] | – | – | 35 ± 3 | 14 ± 1 | – |

| Structure (SMILES) | caspase-3/7 activity (Lum), compound with cisplatin [1] [Lum] | caspase-3/7 activity (Lum), compound alone (Table 3) [Lum] | caspase-3/7 activity (Lum), compound with cisplatin [2] [Lum] | caspase-3/7 activity (Lum), compound alone [3] [Lum] | activity in the screen (Caspase-3/7 activity and microscopic examination), active / inactive |
| --- | --- | --- | --- | --- | --- |
| O=C(CNC(=S)NC(=O)c1ccc(F)cc1)c1ccccc1 [Compound 2-22] | 26 ± 2 | 9 ± 1 | – | – | – |
| Cc1cccc2c(=O)n(CCN(C)C)c(=S)[nH]c12 [Compound 1-7] | – | – | 20 ± 3 | 12 ± 2 | – |
| CC(C)C(=O)NC(=S)Nc1ccc(F)c(Cl)c1 [Compound 2-11] | 17 ± 2 | 9 ± 1 | – | – | – |
| CC1CCN(CCCn2c(=S)[nH]c3ccccc3c2=O)CC1 [Compound 1-12] | – | – | 23 ± 3 | 10 ± 1 | – |
| O=C(NC(=S)NCC1CCCO1)c1ccccc1 (stereo not drawn) [Compound 2-9] | 20 ± 2 | 8 ± 1 | – | – | – |
| O=C(Nc1ccccc1)c1c(O)[nH]c(=S)[nH]c1=O [Compound 1-35] | – | – | 5 ± 1 | 2 ± 1 | – |
| Cc1[nH]c(=S)[nH]c(=O)c1CCC(=O)NCCc1c[nH]c2ccccc12 [Compound 1-11] | – | – | 18 ± 2 | 12 ± 1 | – |
| COc1ccc(C=C2C(=O)NC(=S)NC2=O)c(OC)c1 [Compound 2-6] | 22 ± 1 | 7 ± 1 | – | – | – |
| CCCN1C(=O)C(=C(C)NC2CCC(C)CC2)C(=O)NC1=S (stereo not drawn) [Compound 2-27] | 19 ± 3 | 7 ± 1 | – | – | – |
| O=C(NC(=S)Nc1ccccc1N1CCOCC1)c1ccco1 [Compound 2-3] | 20 ± 1 | 8 ± 1 | – | – | – |
| Cc1c(NC(=S)NC(=O)C(C)(C)C)c(=O)n(-c2ccccc2)n1C [Compound 2-10] | 20 ± 2 | 7 ± 2 | – | – | – |
| O=C(NC(=S)NCCc1ccccc1)C1CCCCC1 [Compound 2-28] | 18 ± 2 | 7 ± 1 | – | – | – |
| C=CCn1c(=S)[nH]c2scc(-c3ccc(Oc4ccccc4)cc3)c2c1=O [Compound 1-15] | – | – | 28 ± 3 | 12 ± 2 | inactive |
| COc1ccc(C(C)=C2C(=O)NC(=S)NC2=O)cc1OC [Compound 2-26] | 21 ± 4 | 6 ± 0 | – | – | – |
| O=C(NC(=S)Nc1ccccc1F)c1ccco1 [Compound 2-21] | 25 ± 1 | 8 ± 1 | – | – | – |
| C=CCn1c(=S)[nH]c2cc(C(=O)Nc3cc(OC)c(OC)c(OC)c3)ccc2c1=O [Compound 1-22] | – | – | 25 ± 2 | 16 ± 1 | – |
| Cc1[nH]c(=S)[nH]c(=O)c1CCC(=O)N1CCOCC1 [Compound 1-10] | – | – | 21 ± 2 | 14 ± 1 | – |
| COc1ccc(C(C)=C2C(=O)NC(=S)NC2=O)cc1 [Compound 2-25] | 24 ± 2 | 6 ± 0 | – | – | – |
| O=C(NC(=S)NC1CCS(=O)(=O)C1)c1ccc(F)cc1 (stereo not drawn) [Compound 2-13] | 20 ± 3 | 8 ± 1 | – | – | – |
| CN(Cc1ccc(Cl)c(Cl)c1)C(=O)CCn1c(=O)[nH]c(=O)c2ccccc21 [Compound 1-23] | – | – | 27 ± 1 | 15 ± 1 | – |
| O=c1[nH]c2ccccc2c(=O)n1CCCN1CCOCC1 [Compound 1-32] | – | – | 20 ± 1 | 13 ± 1 | – |
| NC(=O)c1ccccc1NC(=S)NC(=O)c1ccco1 [Compound 2-29] | 19 ± 3 | 7 ± 1 | – | – | – |
| CC(C)(C)C1CCc2c(sc3[nH]c(=S)n(Cc4ccccc4)c(=O)c23)C1 (stereo not drawn) [Compound 1-27] | – | – | 40 ± 5 | 23 ± 2 | inactive |
| CCOC(=O)c1ccccc1NC(=O)c1c(O)[nH]c(=S)[nH]c1=O [Compound 1-34] | – | – | 22 ± 3 | 12 ± 1 | – |
